Data on 25 compounds can be found in patent US12285475B2, “Bacterium capable of inducing TH1 cells” (priority 2016, dated 2025).

Where two headings read alike, the source gives them in different places.

One assay relates to Kp-2H7. The experiment in a line: Kp-2H7 antibiotic susceptibility (MIC / growth in presence of antibiotics). The format is cell-based, Klebsiella pneumoniae. The conditions noted are these: for resistance of Kp-2H7 to antibiotic: FIG. 11 and Table 12, culture 37° C. 24 hours, absorbance 630 nm. The method, then:
The bacterium growths were determined based on the absorbance measurement at a wavelength of 630 nm.

A further assay deals with Ka-11E12. The experiment in a line: Ka-11E12 antibiotic susceptibility (MIC / growth in presence of antibiotics). The format is cell-based, Klebsiella aeromobilis. The following applies: against Ka-11E12, Table 14. The method, then: FIG. 36 is a graph for analyzing the Ka-11E12 growths in the presence of antibiotics. Ka-11E12 was cultured in a 96-well plate in the presence of different concentrations of the antibiotics at 37° C. for 24 hours. The bacterium growths were determined based on the absorbance measurement at a wavelength of 630 nm. Each data represents the mean±standard deviation based on the results of at least three independent experiments.

Setting [1] is: Klebsiella pneumoniae, 24 h, read-out: MIC.
Setting [2] is: Klebsiella, 24 h, read-out: MIC.

Take `CN[C@@H]1[C@H](O)[C@H](NC)[C@H]2O[C@@]3(O)C(=O)C[C@@H](C)O[C@H]3O[C@@H]2[C@H]1O` [spectinomycin]: the “resistance of Kp-2H7 to antibiotic” value in the assay with Kp-2H7 is on record as “resistances”. A word on the MIC: it is the lowest concentration that inhibits growth of the organism. On to `C[C@H]1COc2c(N3CCN(C)CC3)c(F)cc3c(=O)c(C(=O)O)cn1c23` [Levofloxacin], for which the MIC in the assay on Kp-2H7 (setting [1]) and in the assay with Ka-11E12 (setting [2]) was at most 1 µg/mL each time.

On to `Cc1ncc([N+](=O)[O-])n1CCO` [metronidazole], for which the “resistance of Kp-2H7 to antibiotic” value in the assay on Kp-2H7 is reported as “resistances”. Take `CN(C)c1ccc(O)c2c1C[C@H]1C[C@H]3[C@H](N(C)C)C(O)=C(C(N)=O)C(=O)[C@@]3(O)C(O)=C1C2=O` [Minocycline]: the MIC in the assay with Kp-2H7 (setting [1]) and in the assay with Ka-11E12 (setting [2]) was at most 2 µg/mL throughout. For the compound `N[C@@H](C(=O)N[C@@H]1C(=O)N2C(C(=O)O)=C(Cl)CS[C@H]12)c1ccccc1` [Cefaclor], the MIC with Kp-2H7 (setting [1]) is at most 4 µg/mL; in the assay on Ka-11E12 (setting [2]) it was 8 µg/mL. `Cc1nnc(SCC2=C(C(=O)O)N3C(=O)[C@@H](NC(=O)Cn4cnnn4)[C@H]3SC2)s1` [Cefazolin]: the results for the MIC in the assay on Kp-2H7 (setting [1]) and in the assay on Ka-11E12 (setting [2]) were 1 µg/mL and above 4 µg/mL, respectively. Regarding `C[C@@H](O)[C@H]1C(=O)N2C(C(=O)O)=C(S[C@@H]3CN[C@H](C(=O)N(C)C)C3)[C@H](C)[C@H]12` [Meropenem], the MIC in the assay on Kp-2H7 (setting [1]) and in the assay on Ka-11E12 (setting [2]) was at most 0.25 µg/mL each time.

As to `C[C@H]1[C@H](NC(=O)/C(=N\OC(C)(C)C(=O)O)c2csc(N)n2)C(=O)N1S(=O)(=O)O` [Aztreonam], the MIC in the assay with Kp-2H7 (setting [1]) and in the assay on Ka-11E12 (setting [2]) was at most 1 µg/mL in each case. Take Amoxicillin/Clavulanate: the MIC in the assay with Kp-2H7 (against Kp-2H7, Table 12) was at most 4 µg/mL; with Ka-11E12 it was above 16 µg/mL. For `CN(C)CCn1nnnc1SCC1=C(C(=O)O)N2C(=O)[C@@H](NC(=O)Cc3csc(N)n3)[C@H]2SC1` [Cefotiam], the MIC in the assay with Kp-2H7 (setting [1]) and in the assay with Ka-11E12 (setting [2]) was at most 0.5 µg/mL throughout.

`CC[C@H]1OC(=O)C[C@@H](O)[C@H](C)[C@@H](O[C@@H]2O[C@H](C)[C@@H](O[C@H]3C[C@@](C)(O)[C@@H](O)[C@H](C)O3)[C@H](N(C)C)[C@H]2O)[C@@H](CC=O)C[C@@H](C)C(=O)/C=C/C(C)=C/[C@@H]1CO[C@@H]1O[C@H](C)[C@@H](O)[C@@H](OC)[C@H]1OC` [tylosin]: the “resistance of Kp-2H7 to antibiotic” value with Kp-2H7 is “resistances”. Take `CO/N=C(\C(=O)N[C@@H]1C(=O)N2C(C(=O)O)=C(COC(C)=O)CS[C@H]12)c1csc(N)n1` [Cefotaxime]: the MIC with Kp-2H7 (setting [1]) and in the assay with Ka-11E12 (setting [2]) was at most 0.5 µg/mL each time. For the compound `CO/N=C(\C(=O)N[C@@H]1C(=O)N2C(C(=O)[O-])=C(C[n+]3cccc4c3CCC4)CS[C@H]12)c1csc(N)n1` [Cefpirome], the MIC in the assay with Kp-2H7 (setting [1]) and in the assay with Ka-11E12 (setting [2]) was at most 4 µg/mL each time. In the case of Imipenem/Cilastatin, the MIC in the assay with Kp-2H7 and in the assay on Ka-11E12 was at most 0.25 µg/mL each time. Take `NCC[C@H](O)C(=O)N[C@@H]1C[C@H](N)[C@@H](O[C@H]2O[C@H](CN)[C@@H](O)[C@H](O)[C@H]2O)[C@H](O)[C@H]1O[C@H]1O[C@H](CO)[C@@H](O)[C@H](N)[C@H]1O` [Amikacin]: the MIC with Kp-2H7 (setting [1]) and with Ka-11E12 (setting [2]) was at most 8 µg/mL throughout.

As for `COCC1=C(C(=O)OC(C)OC(=O)OC(C)C)N2C(=O)[C@@H](NC(=O)/C(=N\OC)c3csc(N)n3)[C@H]2SC1` (some centres unmarked) [Cefpodoxime-Proxetil], the MIC in the assay with Kp-2H7 (setting [1]) and in the assay with Ka-11E12 (setting [2]) was at most 1 µg/mL each time.

As to Sulfamethoxazole-Trimethoprim, the MIC in the assay with Kp-2H7 (against Kp-2H7, Table 12) is at most 20 µg/mL; with Ka-11E12, at most 20 µg/mL. In the case of Sulbactam/Cefoperazone, the MIC is at most 4 µg/mL in the assay with Kp-2H7 (against Kp-2H7, Table 12) and at most 4 µg/mL in the assay with Ka-11E12. Consider Gentamicin, for which the MIC in the assay on Kp-2H7 (against Kp-2H7, Table 12) is at most 2 µg/mL; in the assay on Ka-11E12, at most 2 µg/mL. Turning to `C[C@@H]1O[C@@H]1P(=O)(O)O` [Fosfomycin], the MIC in the assay with Kp-2H7 (setting [1]) and in the assay with Ka-11E12 (setting [2]) was 16 µg/mL throughout. For `CCN1CCN(C(=O)N[C@@H](C(=O)N[C@@H]2C(=O)N3[C@@H]2SC(C)(C)[C@@H]3C(=O)O)c2ccccc2)C(=O)C1=O` [Piperacillin], the MIC in the assay on Kp-2H7 (setting [1]) and with Ka-11E12 (setting [2]) was at most 8 µg/mL throughout.

For `CC1(C)S[C@@H]2[C@H](NC(=O)[C@H](N)c3ccccc3)C(=O)N2[C@H]1C(=O)O` [Ampicillin], the MIC in the assay on Kp-2H7 (setting [1]) and in the assay with Ka-11E12 (setting [2]) was above 16 µg/mL throughout. As for `CO[C@@]1(NC(=O)CSC(F)F)C(=O)N2C(C(=O)O)=C(CSc3nnnn3CCO)CO[C@@H]21` [Flomoxef], the MIC in the assay on Kp-2H7 (setting [1]) and in the assay on Ka-11E12 (setting [2]) was at most 8 µg/mL in each case. For the compound `CO[C@@]1(NC(=O)CSCC#N)C(=O)N2C(C(=O)O)=C(CSc3nnnn3C)CS[C@@H]21` [Cefmetazole], the MIC in the assay on Kp-2H7 (setting [1]) is at most 8 µg/mL; in the assay on Ka-11E12 (setting [2]), 16 µg/mL. For `CC(C)(O/N=C(\C(=O)N[C@@H]1C(=O)N2C(C(=O)[O-])=C(C[n+]3ccccc3)CS[C@H]12)c1csc(N)n1)C(=O)O` [Ceftazidime] the same measures were at most 1 µg/mL and at most 1 µg/mL.
